Target: T1, recombinant human Myt1 (full length PKMYT1) (Homo sapiens, UniProt Q99640)
T1 sequence (Q99640 1-499): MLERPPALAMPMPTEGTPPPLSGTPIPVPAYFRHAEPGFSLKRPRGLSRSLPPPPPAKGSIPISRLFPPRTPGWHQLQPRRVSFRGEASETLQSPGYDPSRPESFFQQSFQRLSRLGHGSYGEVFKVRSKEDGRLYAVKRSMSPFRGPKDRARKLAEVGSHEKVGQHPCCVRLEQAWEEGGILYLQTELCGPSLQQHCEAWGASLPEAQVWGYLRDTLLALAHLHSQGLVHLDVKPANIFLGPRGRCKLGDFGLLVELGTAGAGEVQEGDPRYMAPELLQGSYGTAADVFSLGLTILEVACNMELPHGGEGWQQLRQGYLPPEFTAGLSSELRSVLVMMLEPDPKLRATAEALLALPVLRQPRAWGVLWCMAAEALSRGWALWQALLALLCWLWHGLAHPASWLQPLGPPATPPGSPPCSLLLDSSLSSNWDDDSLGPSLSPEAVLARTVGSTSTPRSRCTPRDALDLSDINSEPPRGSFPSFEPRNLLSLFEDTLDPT
Experiment: ADP-Glo assay (Myt1 kinase activity)

| SMILES | IC50 |
| --- | --- |
| Cc1c([C@@H]2C[C@H]2C)cnc2c(-c3ccc(F)c4[nH]ncc34)c(N)c(=O)[nH]c12 (racemic) [Example 144, 3-Amino-4-(7-fluoro-1H-indazol-4-yl)-8-methyl-7-[rac-(1R,2R)-2-methylcyclopropyl]-1H-1,5-naphthyridin-2-one] | 11.4 nM |
| Cc1cc2[nH]c(=O)c(N)c(-c3ccc(F)c4[nH]ncc34)c2nc1Cl [Example 3, 3-Amino-6-chloro-4-(7-fluoro-1H-indazol-4-yl)-7-methyl-1H-1,5-naphthyridin-2-one] | < 10 nM |
| Nc1c(-c2ccc(F)c3[nH]ncc23)c2ncc(F)cc2[nH]c1=O [Example 4] | 48.1 nM |
| COc1cnc2c(-c3ccc(F)c4[nH]ncc34)c(N)c(=O)[nH]c2c1 [Example 6, 3-Amino-4-(7-fluoro-1H-indazol-4-yl)-7-methoxy-1H-1,5-naphthyridin-2-one] | 22.6 nM |
| Cn1cncc1-c1cnc2c(-c3ccc(F)c4[nH]ncc34)c(N)c(=O)[nH]c2c1 [Example 8, 3-Amino-4-(7-fluoro-1H-indazol-4-yl)-7-(3-methylimidazol-4-yl)-1H-1,5-naphthyridin-2-one] | 11.6 nM |
| Nc1c(-c2ccc(F)c3[nH]ncc23)c2ncc(-c3ccn[nH]3)cc2[nH]c1=O [Example 9, 3-Amino-4-(7-fluoro-1H-indazol-4-yl)-7-(1H-pyrazol-5-yl)-1H-1,5-naphthyridin-2-one] | 16.1 nM |
| Nc1c(-c2ccc(F)c3[nH]ncc23)c2ncc(-c3ccns3)cc2[nH]c1=O [Example 10, 3-Amino-4-(7-fluoro-1H-indazol-4-yl)-7-isothiazol-5-yl-1H-1,5-naphthyridin-2-one] | 42.9 nM |
| Nc1c(-c2ccc(F)c3[nH]ncc23)c2ncc(-c3ccc(F)cn3)cc2[nH]c1=O [Example 14] | 44.6 nM |
| Nc1c(-c2ccc(F)c3[nH]ncc23)c2ncc(-c3nccs3)cc2[nH]c1=O [Example 16, 3-Amino-4-(7-fluoro-1H-indazol-4-yl)-7-thiazol-2-yl-1H-1,5-naphthyridin-2-one] | 11.3 nM |
| Cc1cc2[nH]c(=O)c(N)c(-c3ccc(F)c4[nH]ncc34)c2nc1C1CC1 [Example 18, 3-Amino-6-cyclopropyl-4-(7-fluoro-1H-indazol-4-yl)-7-methyl-1H-1,5-naphthyridin-2-one] | 10.4 nM |
| Nc1c(-c2ccc(F)c3[nH]ncc23)c2ncc(N3CCOCC3)cc2[nH]c1=O [Example 19, 3-Amino-4-(7-fluoro-1H-indazol-4-yl)-7-morpholino-1H-1,5-naphthyridin-2-one] | 30.3 nM |
| CC(C)(O)c1cnc2c(-c3ccc(F)c4[nH]ncc34)c(N)c(=O)[nH]c2c1 [Example 20, 3-Amino-4-(7-fluoro-1H-indazol-4-yl)-7-(1-hydroxy-1-methyl-ethyl)-1H-1,5-naphthyridin-2-one] | 24.2 nM |
| Cc1cc2[nH]c(=O)c(N)c(-c3ccc(F)c4[nH]ncc34)c2nc1Br [Example 21, 3-Amino-6-bromo-4-(7-fluoro-1H-indazol-4-yl)-7-methyl-1H-1,5-naphthyridin-2-one] | 10.3 nM |
| Cc1cc2[nH]c(=O)c(N)c(-c3ccc(F)c4[nH]ncc34)c2nc1N1CCN(C)CC1 [Example 22, 3-Amino-4-(7-fluoro-1H-indazol-4-yl)-7-methyl-6-(4-methylpiperazin-1-yl)-1H-1,5-naphthyridin-2-one] | < 10 nM |
| Cc1cc2[nH]c(=O)c(N)c(-c3ccc(F)c4[nH]ncc34)c2nc1NC(C)C [Example 23, 3-Amino-4-(7-fluoro-1H-indazol-4-yl)-6-(isopropylamino)-7-methyl-1H-1,5-naphthyridin-2-one] | 10.7 nM |
| Cc1cc2[nH]c(=O)c(N)c(-c3ccc(F)c4[nH]ncc34)c2nc1N1CCC(O)C1 (stereo not shown) [Example 24, 3-Amino-4-(7-fluoro-1H-indazol-4-yl)-6-(3-hydroxypyrrolidin-1-yl)-7-methyl-1H-1,5-naphthyridin-2-one] | 15.6 nM |
| Cc1cc2[nH]c(=O)c(N)c(-c3ccc(F)c4[nH]ncc34)c2nc1N1CCOCC1 [Example 25, 3-Amino-4-(7-fluoro-1H-indazol-4-yl)-7-methyl-6-morpholino-1H-1,5-naphthyridin-2-one] | 18.8 nM |
| Cc1cc2[nH]c(=O)c(N)c(-c3ccc(F)c4[nH]ncc34)c2nc1N1CC2(COC2)C1 [Example 26, 3-Amino-4-(7-fluoro-1H-indazol-4-yl)-7-methyl-6-(2-oxa-6-azaspiro[3.3]heptan-6-yl)-1H-1,5-naphthyridin-2-one] | < 10 nM |
| Cc1cc2[nH]c(=O)c(N)c(-c3ccc(F)c4[nH]ncc34)c2nc1N1CC2(CN(C)C2)C1 [Example 27, 3-Amino-4-(7-fluoro-1H-indazol-4-yl)-7-methyl-6-(6-methyl-2,6-diazaspiro[3.3]heptan-2-yl)-1H-1,5-naphthyridin-2-one] | 21.2 nM |

| SMILES | IC50 |
| --- | --- |
| Cc1cc2[nH]c(=O)c(N)c(-c3ccc(F)c4[nH]ncc34)c2nc1N1CCN(C(C)C)CC1 [Example 28, 3-Amino-4-(7-fluoro-1H-indazol-4-yl)-6-(4-isopropylpiperazin-1-yl)-7-methyl-1H-1,5-naphthyridin-2-one] | 29.1 nM |
| Cc1cc2[nH]c(=O)c(N)c(-c3ccc(F)c4[nH]ncc34)c2nc1N1CCN(C2CC2)CC1 [Example 29, 3-Amino-6-(4-cyclopropylpiperazin-1-yl)-4-(7-fluoro-1H-indazol-4-yl)-7-methyl-1H-1,5-naphthyridin-2-one] | 12 nM |
| Cc1cc2[nH]c(=O)c(N)c(-c3ccc(F)c4[nH]ncc34)c2nc1N1CC2CC1CN2C (stereo not shown) [Example 30, 3-Amino-4-(7-fluoro-1H-indazol-4-yl)-7-methyl-6-(5-methyl-2,5-diazabicyclo[2.2.1]heptan-2-yl)-1H-1,5-naphthyridin-2-one] | 15.3 nM |
| Cc1cc2[nH]c(=O)c(N)c(-c3ccc(F)c4[nH]ncc34)c2nc1N1CC2CCC1CN2C (stereo not shown) [Example 31, 3-Amino-4-(7-fluoro-1H-indazol-4-yl)-7-methyl-6-(5-methyl-2,5-diazabicyclo[2.2.2]octan-2-yl)-1H-1,5-naphthyridin-2-one] | 21.3 nM |
| Nc1c(-c2cccc3[nH]ncc23)c2ncc(C3CC3)cc2[nH]c1=O [Example 34, 3-Amino-7-cyclopropyl-4-(1H-indazol-4-yl)-1H-1,5-naphthyridin-2-one] | 19.3 nM |
| Nc1c(-c2cccc3[nH]ncc23)c2ncc(-c3nccs3)cc2[nH]c1=O [Example 35, 3-Amino-4-(1H-indazol-4-yl)-7-thiazol-2-yl-1H-1,5-naphthyridin-2-one] | 25.6 nM |
| Nc1c(-c2cc(F)cc3[nH]ncc23)c2ncc(Cl)cc2[nH]c1=O [Example 36, 3-Amino-7-chloro-4-(6-fluoro-1H-indazol-4-yl)-1H-1,5-naphthyridin-2-one] | 37.8 nM |
| Cc1cc2[nH]c(=O)c(N)c(-c3ccc(F)c4[nH]ncc34)c2nc1N1CCNCC1 [Example 44, 3-Amino-4-(7-fluoro-1H-indazol-4-yl)-7-methyl-6-piperazin-1-yl-1H-1,5-naphthyridin-2-one] | < 10 nM |
| Cc1cc2[nH]c(=O)c(N)c(-c3ccc(F)c4[nH]ncc34)c2nc1OC1CCC1 [Example 46, 3-Amino-6-(cyclobutoxy)-4-(7-fluoro-1H-indazol-4-yl)-7-methyl-1H-1,5-naphthyridin-2-one] | 10.6 nM |
| Cc1cc2[nH]c(=O)c(N)c(-c3ccc(F)c4[nH]ncc34)c2nc1OCC1CC1 [Example 47, 3-Amino-6-(cyclopropylmethoxy)-4-(7-fluoro-1H-indazol-4-yl)-7-methyl-1H-1,5-naphthyridin-2-one] | < 10 nM |
| Cc1cc2[nH]c(=O)c(N)c(-c3ccc(F)c4[nH]ncc34)c2cc1C [Example 48, 3-Amino-4-(7-fluoro-1H-indazol-4-yl)-6,7-dimethyl-1H-quinolin-2-one] | 27.1 nM |
| Cc1c(Cl)nc2c(-c3ccc(F)c4[nH]ncc34)c(N)c(=O)[nH]c2c1C [Example 49, 3-Amino-6-chloro-4-(7-fluoro-1H-indazol-4-yl)-7,8-dimethyl-1H-1,5-naphthyridin-2-one] | < 10 nM |
| Nc1c(-c2ccc(F)c3[nH]ncc23)c2nccc(Cl)c2[nH]c1=O [Example 50, 3-Amino-8-chloro-4-(7-fluoro-1H-indazol-4-yl)-1H-1,5-naphthyridin-2-one] | < 10 nM |
| COc1c(C)cnc2c(-c3ccc(F)c4[nH]ncc34)c(N)c(=O)[nH]c12 [Example 51, 3-Amino-4-(7-fluoro-1H-indazol-4-yl)-8-methoxy-7-methyl-1H-1,5-naphthyridin-2-one] | 17.9 nM |
| Cc1nc2c(-c3ccc(F)c4[nH]ncc34)c(N)c(=O)[nH]c2cc1Cl [Example 52, 3-Amino-7-chloro-4-(7-fluoro-1H-indazol-4-yl)-6-methyl-1H-1,5-naphthyridin-2-one] | < 10 nM |
| Cc1cnc2c(-c3ccc(F)c4[nH]ncc34)c(N)c(=O)[nH]c2c1Cl [Example 53, 3-Amino-8-chloro-4-(7-fluoro-1H-indazol-4-yl)-7-methyl-1H-1,5-naphthyridin-2-one] | 10.7 nM |
| Nc1c(-c2ccc(F)c3[nH]ncc23)c2nc(C3CC3)c(Cl)cc2[nH]c1=O [Example 55, 3-Amino-7-chloro-6-cyclopropyl-4-(7-fluoro-1H-indazol-4-yl)-1H-1,5-naphthyridin-2-one] | 12.4 nM |
| Cc1nc2c(-c3ccc(F)c4[nH]ncc34)c(N)c(=O)[nH]c2c(C)c1Cl [Example 56, 3-Amino-7-chloro-4-(7-fluoro-1H-indazol-4-yl)-6,8-dimethyl-1H-1,5-naphthyridin-2-one] | < 10 nM |

From patent US20260078122A1, “INDAZOLE COMPOUNDS AS PKMYT1 KINASE INHIBITORS” (Hoffmann-La Roche Inc., priority 2023, published 2026)
